Reference: PMC10496123, “Potent Antifungal Activity of Penta-O-galloyl-β-D-Glucose against Drug-Resistant Candida albicans, Candida auris, and Other Non-albicans Candida Species” (ACS Infectious Diseases, 2023)
In brackets after ≈: the same amount, converted by molar mass.

Assays:
[1] = test system: Candida glabrata; assay: Growth inhibition by CLSI microbroth dilution; format: cell-based; conditions: Nakaseomyces glabratus, 48 h, >90% growth inhibition
[2] = test system: Candida auris; assay: Growth inhibition by CLSI microbroth dilution; format: cell-based; conditions: Candidozyma auris, 48 h
[3] = test system: Candida albicans; assay: Growth inhibition by CLSI microbroth dilution; format: cell-based; conditions: Candida albicans, >90% growth inhibition, 48 h
[4] = test system: C. albicans wild type (CAF2-1) and cdr1Δ/Δ cdr2Δ/Δ mdr1Δ/Δ flu1Δ/Δ; assay: microbe, parasite or virus in culture; format: cell-based, Candida albicans; conditions: for MIC90: Candida albicans, 72 h, RPMI-1640, 72 h, 30 °C, OD600
[5] = test system: Candida parapsilosis; assay: Growth inhibition by CLSI microbroth dilution; format: cell-based; conditions: 48 h, >90% growth inhibition
[6] = test system: C. albicans wild type (SN95, SN152) and ire1Δ/Δ, hap43Δ/Δ, rim101Δ/Δ; assay: microbe, parasite or virus in culture; format: cell-based, Candida albicans; conditions: mutants versus wild type
[7] = test system: C. albicans; parameters: method as in PMID 12760852; conditions: 6 months of treatment in vitro; cited from earlier work
[8] = test system: Candida albicans; parameters: method as in PMID 15790671; conditions: addition of both Fe^2+ and Fe^3+; cited from earlier work
[9] = strain AR Bank #0381, >90% growth inhibition
[10] = strain AR Bank #0387, >90% growth inhibition
[11] = strain AR Bank #0390, >90% growth inhibition

| Compound | MIC ([1]; strain AR Bank #0325) [µg/mL] | MIC ([1]; strain AR Bank #0326) [µg/mL] | MIC [2, 9] [µg/mL] | MIC [2, 10] [µg/mL] | MIC [2, 11] [µg/mL] | MIC ([3]; ATCC90028, strain ATCC 90028) [µg/mL] | MIC ([3]; strain MH12) [µg/mL] | MIC90 ([4]; Wild type (CAF2-1)) [µg/mL] | MIC90 ([4]; cdr1Δ/Δ cdr2Δ/Δ mdr1Δ/Δ flu1Δ/Δ) [µg/mL] | Effect of absence of major efflux pumps (CDR1, CDR2, FLU1, MDR1) on sensitivity ([4]; mutant versus wild type) | MIC ([5]; strain AR Bank #0335) [µg/mL] | MIC ([5]; strain AR Bank #0337) [µg/mL] | MIC ([5]; strain AR Bank #0338) [µg/mL] | MIC ([5]; strain AR Bank #0339) [µg/mL] | Effect of deletion of IRE1, HAP43 and RIM101 on sensitivity [6] | Development of resistance [7] | Antifungal activity on addition of iron [8] |
| --- | --- | --- | --- | --- | --- | --- | --- | --- | --- | --- | --- | --- | --- | --- | --- | --- | --- |
| OC(Cn1cncn1)(Cn1cncn1)c1ccc(F)cc1F [FLC, fluconazole] | > 8 | 4 (≈ 13.1 µM) | 4 (≈ 13.1 µM) | 1 (≈ 3.27 µM) | > 8 | 0.25 (≈ 0.816 µM) | > 8 | > 5 | 0.16 (≈ 0.522 µM) | hypersensitivity | > 8 | > 8 | > 8 | > 8 |  |  |  |
| CC(=O)N1CCN(c2ccc(OCC3COC(Cn4ccnc4)(c4ccc(Cl)cc4Cl)O3)cc2)CC1 (stereo not drawn) [KTC, ketoconazole] | 4 (≈ 7.53 µM) | 0.25 (≈ 0.47 µM) | < 0.0039 | < 0.0039 | 0.5 (≈ 0.941 µM) | < 0.0039 | 1 (≈ 1.88 µM) |  |  |  | 4 (≈ 7.53 µM) | 2 (≈ 3.76 µM) | 0.5 (≈ 0.941 µM) | 0.25 (≈ 0.47 µM) |  |  |  |
| bathophenanthrolinedisulfonate [BPS, reference compound] |  |  |  |  |  |  |  |  |  |  |  |  |  |  | hypersensitive |  |  |
| C[C@@H]1[C@H](O)[C@@H](C)/C=C/C=C/C=C/C=C/C=C/C=C/C=C/[C@H](O[C@@H]2O[C@H](C)[C@@H](O)[C@H](N)[C@@H]2O)C[C@@H]2O[C@](O)(C[C@@H](O)C[C@@H](O)[C@H](O)CC[C@@H](O)C[C@@H](O)CC(=O)O[C@H]1C)C[C@H](O)[C@H]2C(=O)O [AMB, amphotericin B] | 1 (≈ 1.08 µM) | 1 (≈ 1.08 µM) | 1 (≈ 1.08 µM) | 0.5 (≈ 0.541 µM) | 2 (≈ 2.16 µM) | 1 (≈ 1.08 µM) | 1 (≈ 1.08 µM) |  |  |  | 1 (≈ 1.08 µM) | 1 (≈ 1.08 µM) | 1 (≈ 1.08 µM) | 2 (≈ 2.16 µM) |  |  |  |
| Cc1cc(C2CCCCC2)n(O)c(=O)c1 [ciclopirox] |  |  |  |  |  |  |  |  |  |  |  |  |  |  |  | did not develop | abrogated |
